# Assay results reported in patent US7083809B2, “Purified cytokine inhibitory factor” (Arkion Life Sciences, LLC, priority 2002, dated 2006).
# Columns and labels:
# murine macrophage = conditions: cited from earlier work
# [1] = 20 cancer patients, intravenous pretreatment followed by intravenous endotoxin; cited from earlier work
# PGE2 biosynthesis = experiment: Inhibition of PGE2 biosynthesis in LPS-stimulated RAW 264.7 cells (EIA); format: cell-based, mouse
# Experimental: The assay began with overnight induction of COX-2 through mitogenic (LPS) stimulation of RAW 264.7 cell monolayers. The cell monolayers were then exposed to a test article (e.g. indomethacin) for 30 min at 37° C., and then an exogenous source of arachidonic acid was provided to the system. COX1 and COX2 (in addition to a PGE2 specific synthetase) converted the exogenous arachidonic acid to PGE2. Prostaglandin E2 in the culture medium was then quantified by a commercial EIA system. When less PGE2 was recovered from culture medium containing a test article than was recovered from culture medium alone, the condition was labeled inhibition.
# Assay procedure: 5×10^6 Cells in DMEM medium were seeded and incubated in a 37° C., 5% CO2 incubator overnight. At approximately 24 h growth of cells seeded on day 1 (usually 90–100% confluence), growth medium was aseptically decanted and discarded. 10 ml sterile PBSA was gently pipetted into flasks against a non-growth surface, and the cells were washed twice. 10 ml DMEM containing LPS (2 ng/ml) was added to the tested flasks. Flasks were placed in a 37° C., 5% CO2 incubator overnight for 16 h.
# At 16 h post-initial LPS exposure, growth medium was aseptically removed (suction) and discarded. 10 ml sterile PBSA was gently pipetted into flasks against a non-growth surface, and the cells were washed twice. Cells were incubated in the presence of 2 ml PBSA, 2 ml positive control drugs, or 2 ml yolk lipids sample (1.0 mg/ml) at 37° C. After 30 min incubation, 222 μl of 300 ΞM arachidonic acid was added to every flask. Cells were incubated for an additional 15 min at 37° C. in presence of the 30 μM arachidonic acid. After the 15 min incubation, 50 μl of 1 mg/ml indomethacin was added to contents of flask to stop the reaction. All fluids from flasks were collected into appropriately labeled polypropylene tubes.
# Prostaglandin E2 was assayed with the commercial ELISA kit (Amersham RPN222) at room temperature following the standard protocol.
# TNF-α = experiment: LPS-induced cytokine mRNA inhibition assay in THP1 monocytes (RT-PCR); format: cell-based, human; conditions: THP1 cells, culture medium
# IL-1β = experiment: as above; format: cell-based, human; conditions: THP1 cells
compound,measurement,setting,value
CCCCCCCCCCCCCC(=O)N[C@H]1[C@H](OC[C@H]2O[C@H](OC(CC(=O)O)CC(=O)O)[C@H](NC(=O)CCCCCCCCCCCCC)[C@@H](OC(=O)CNC(=O)CCCCCCCCCCC)[C@@H]2O)O[C@H](CO)[C@@H](OP(=O)(O)O)[C@@H]1OC(=O)CNC(=O)CCCCCCCCCCC [DT-5461a],"Induction of TNF-α, IL-1β, IL-6, and GM-CSF",murine macrophage,induces
CCCCCCCCCCC[C@@H](O)CC(=O)N[C@H]1[C@@H](OP(=O)(O)O)O[C@H](CO)[C@@H](OC(=O)C[C@H](O)CCCCCCCCCCC)[C@@H]1OC(=O)C[C@H](O)CCCCCCCCCCC [SDZ MRL 953],"Release of TNF-α, IL-1β, IL-8, IL-6, and G-CSF",[1],markedly reduced
CC(=O)Oc1ccccc1C(=O)O [aspirin],Inhibition of PGE2 biosynthesis in cells (in words),PGE2 biosynthesis,inhibited
CC(C)Cc1ccc(C(C)C(=O)O)cc1 (stereo not shown) [ibuprofen],Inhibition of PGE2 biosynthesis in cells (in words),PGE2 biosynthesis,inhibited
COc1ccc2c(c1)c(CC(=O)O)c(C)n2C(=O)c1ccc(Cl)cc1 [indomethacin],Inhibition of PGE2 biosynthesis in cells (in words),PGE2 biosynthesis,inhibited
lipopolysaccharide [LPS],LPS concentration of maximum induction for TNFa,TNF-α,around 0.2 mg/ml
same,LPS concentration able to induce IL-1b,IL-1β,0.008 mg/mL
